Laboratory results reported in the NIST ThermoML archive (doi:10.1021/je501065g).
± gives the expanded uncertainty stated by the source.

Details: Liquid, Pulse-echo method

c1ccccc1 [benzene]
Details | speed of sound [m/s]
283.2 K, 102.1 kPa | 1372 ± 0.83
283.2 K, 5280.1 kPa | 1396 ± 0.84
283.2 K, 10234 kPa | 1418.2 ± 0.85
283.2 K, 15332 kPa | 1439.9 ± 0.86
283.2 K, 20204 kPa | 1460.2 ± 0.87
283.2 K, 24857 kPa | 1479 ± 0.88
283.21 K, 29815 kPa | 1498.1 ± 0.89
298.2 K, 84.2 kPa | 1299.7 ± 0.79
298.2 K, 5421.7 kPa | 1327 ± 0.81
298.2 K, 10069 kPa | 1349.5 ± 0.82
298.2 K, 14866 kPa | 1371 ± 0.83
298.2 K, 20104 kPa | 1394.3 ± 0.84
298.2 K, 25018 kPa | 1415.8 ± 0.85
298.2 K, 30106 kPa | 1436.9 ± 0.86
313.2 K, 61.2 kPa | 1230.4 ± 0.76
313.2 K, 5536.5 kPa | 1259.8 ± 0.77
313.2 K, 10140 kPa | 1283.5 ± 0.78
313.2 K, 15332 kPa | 1309 ± 0.8
313.2 K, 20194 kPa | 1332.2 ± 0.81
313.2 K, 25204 kPa | 1354.8 ± 0.82
313.2 K, 29980 kPa | 1375.7 ± 0.83
333.21 K, 153.7 kPa | 1139.7 ± 0.72
333.21 K, 5378.8 kPa | 1171.4 ± 0.73
333.21 K, 10149 kPa | 1198.3 ± 0.74
333.21 K, 15038 kPa | 1225 ± 0.76
333.21 K, 19601 kPa | 1248.5 ± 0.77
333.21 K, 24756 kPa | 1274 ± 0.78
333.21 K, 30146 kPa | 1299.2 ± 0.79
353.2 K, 15092 kPa | 1146.6 ± 0.72
353.2 K, 19918 kPa | 1173.2 ± 0.73
353.21 K, 172.3 kPa | 1052.2 ± 0.68
353.21 K, 5094.9 kPa | 1084.9 ± 0.69
353.21 K, 10007 kPa | 1116.2 ± 0.7
353.21 K, 24680 kPa | 1198.7 ± 0.74
353.21 K, 30063 kPa | 1226 ± 0.76

CCO [ethanol]
Details | speed of sound [m/s]
253.22 K, 104.2 kPa | 1304.8 ± 0.7
253.22 K, 130.2 kPa | 1305.1 ± 0.7
253.22 K, 5018.8 kPa | 1330.4 ± 0.71
253.22 K, 5283.4 kPa | 1331.5 ± 0.71
253.22 K, 10112 kPa | 1355.4 ± 0.72
253.22 K, 10246 kPa | 1355.8 ± 0.72
253.22 K, 15106 kPa | 1379.1 ± 0.73
253.22 K, 15229 kPa | 1379.4 ± 0.73
253.22 K, 19991 kPa | 1401.4 ± 0.74
253.22 K, 20403 kPa | 1402.9 ± 0.74
253.22 K, 24921 kPa | 1422.9 ± 0.75
253.22 K, 25022 kPa | 1423.6 ± 0.75
253.22 K, 30114 kPa | 1444.8 ± 0.76
253.23 K, 30052 kPa | 1444.5 ± 0.76
273.2 K, 99.9 kPa | 1230.8 ± 0.67
273.2 K, 5193.3 kPa | 1259.3 ± 0.69
273.2 K, 10100 kPa | 1285.4 ± 0.7
273.2 K, 15284 kPa | 1311.7 ± 0.7
273.2 K, 20253 kPa | 1336 ± 0.72
273.2 K, 25058 kPa | 1358.8 ± 0.72
273.2 K, 25221 kPa | 1359.3 ± 0.72
273.2 K, 30203 kPa | 1381.6 ± 0.73
273.21 K, 128.6 kPa | 1231.1 ± 0.67
273.21 K, 5026.6 kPa | 1258.5 ± 0.68
273.21 K, 10148 kPa | 1285.8 ± 0.7
273.21 K, 15029 kPa | 1310.8 ± 0.7
273.21 K, 20070 kPa | 1335.2 ± 0.71
273.21 K, 30338 kPa | 1382.2 ± 0.73
293.2 K, 103.7 kPa | 1160 ± 0.63
293.2 K, 5339.4 kPa | 1192 ± 0.65
293.2 K, 10368 kPa | 1220.8 ± 0.66
293.2 K, 15197 kPa | 1247.2 ± 0.68
293.2 K, 20222 kPa | 1273.4 ± 0.69
293.2 K, 25256 kPa | 1298.5 ± 0.7
293.2 K, 30069 kPa | 1321.4 ± 0.7
293.21 K, 140 kPa | 1160.4 ± 0.63
293.21 K, 5169 kPa | 1191 ± 0.65
293.21 K, 9977.3 kPa | 1218.7 ± 0.66
293.21 K, 15052 kPa | 1246.6 ± 0.67
293.21 K, 20101 kPa | 1272.9 ± 0.68
293.21 K, 25034 kPa | 1297.5 ± 0.69
293.21 K, 30268 kPa | 1322.5 ± 0.71
313.21 K, 103.8 kPa | 1091.9 ± 0.61
313.21 K, 121.8 kPa | 1092.3 ± 0.61
313.21 K, 5023.3 kPa | 1124.7 ± 0.62
313.21 K, 5318.6 kPa | 1126.5 ± 0.62
313.21 K, 10011 kPa | 1155.8 ± 0.63
313.21 K, 10351 kPa | 1157.8 ± 0.64
313.21 K, 14993 kPa | 1185.1 ± 0.64
313.21 K, 15238 kPa | 1186.6 ± 0.65
313.21 K, 20052 kPa | 1213.5 ± 0.66
313.21 K, 20317 kPa | 1214.8 ± 0.66
313.21 K, 25163 kPa | 1240.5 ± 0.67
313.21 K, 25383 kPa | 1241.6 ± 0.67
313.21 K, 30116 kPa | 1265.6 ± 0.68
313.21 K, 30384 kPa | 1266.8 ± 0.68
333.21 K, 104.1 kPa | 1024.9 ± 0.59
333.21 K, 137.3 kPa | 1025.2 ± 0.59
333.21 K, 5087.6 kPa | 1061.2 ± 0.6
333.21 K, 5212.7 kPa | 1062.1 ± 0.6
333.21 K, 10090 kPa | 1095 ± 0.61
333.21 K, 10228 kPa | 1095.9 ± 0.61
333.21 K, 15025 kPa | 1126.4 ± 0.62
333.21 K, 15294 kPa | 1127.9 ± 0.62
333.21 K, 19954 kPa | 1155.9 ± 0.63
333.21 K, 20181 kPa | 1157.1 ± 0.64
333.21 K, 24959 kPa | 1184.2 ± 0.64
333.21 K, 25377 kPa | 1186.4 ± 0.65
333.21 K, 30028 kPa | 1211.3 ± 0.66
333.21 K, 30214 kPa | 1212.3 ± 0.66
353.2 K, 103.5 kPa | 957.73 ± 0.55
353.21 K, 132.1 kPa | 957.59 ± 0.55
353.21 K, 5006 kPa | 996.76 ± 0.57
353.21 K, 5137.5 kPa | 997.75 ± 0.57
353.21 K, 10089 kPa | 1034.4 ± 0.58
353.21 K, 10319 kPa | 1035.9 ± 0.58
353.21 K, 15035 kPa | 1068.3 ± 0.6
353.21 K, 15211 kPa | 1069.4 ± 0.6
353.21 K, 20108 kPa | 1100.9 ± 0.61
353.21 K, 20273 kPa | 1101.7 ± 0.61
353.21 K, 25007 kPa | 1130.5 ± 0.62
353.21 K, 25250 kPa | 1131.8 ± 0.62
353.21 K, 30102 kPa | 1159.5 ± 0.63
353.21 K, 30289 kPa | 1160.5 ± 0.63
